The results in this text go back to a melting point compilation (Tetko et al.).

By melting point is commonly meant the temperature, or range, at which the solid turns liquid.

In turn, `O=S(=O)(Cl)c1c(Cl)ccc2ccccc12` registered a melting point of 65 to 67 °C.

The compound `COc1ccc(C)cc1-n1cc(C(=O)O)ccc1=O` registered a melting point of 244 to 246 °C. As to `CC(CS(C)(=O)=O)C(=O)O` (stereo unspecified), the melting point lay in the range of 125 to 127 °C. `Nc1ccc(S(N)(=O)=O)cc1[N+](=O)[O-]` had a melting point of 206 to 208 °C. Compound `Cc1cccn2c(=O)cc(Cl)nc12` showed a melting point of 124 to 126 °C. The compound `O=C(O)CN1CCCNC1=O` returned a melting point of 248 to 250 °C. Turning to `NNC(=S)NCc1ccc(F)cc1`, the melting point fell in the range of 140 to 142 °C. With `CC(C)c1noc(N)n1`, the melting point fell in the range of 101 to 103 °C. The compound `O=S(=O)(Cl)c1csc2ccc(F)cc12` gave a melting point of 129 to 131 °C.

On to `O=C(O)c1cc2[nH]nnc2cc1F`, for which the melting point lay in the range of 268 to 270 °C. With `Cc1ccc(C(=O)c2ccccc2C(=O)O)cc1C` the figure was 166 to 168 °C. With `CC1CCCN1C(=O)c1cc2ccccc2cc1N` (stereo unspecified) the figure was 123 to 125 °C; with `COc1ccc2[nH]c3c(c2c1)C(=O)CCC3`, 269 to 271 °C. `O=C(NC=C(Cl)Cl)c1ccc(Br)cc1` displayed a melting point of 110 to 112 °C. With `Cc1csc(-c2ccc(C(=O)O)cc2)n1` the figure was 208 to 210 °C; with `Nc1ccc(Br)nc1Cl`, 113 to 115 °C. `Brc1ccc2c(c1)CCCCN2` gave a melting point of 52 to 54 °C.

`CC(=NO)c1ccc(OCc2ccc(F)cc2)cc1` came in with a melting point of 151 to 153 °C.

In turn, `CCC(Cc1ccccc1Br)C(=O)O` (stereo unspecified) had a melting point of 67 to 69 °C. Regarding `CC(C)(C)c1noc(-c2cc(Cl)ccc2N)n1`, the melting point was 132 to 134 °C. Compound `O=C1OC(CBr)CN1c1ccccc1` (stereo unspecified) returned a melting point of 102 to 104 °C. With `Clc1nc(CN2CCOCC2)nc2scc(-c3cccs3)c12` the figure was 105 to 107 °C; with `Cc1ccccc1C1(C)NC(=O)NC1=O` (stereo unspecified), 169 to 171 °C; with `COc1ccccc1C(=O)c1ccccn1`, 49 to 51 °C. As for `Cn1c(NN)nnc1-c1ccccc1`, the melting point was in the range of 147 to 149 °C. In turn, `CC(C)Cn1c(N)c(Br)c(=O)[nH]c1=O` gave a melting point of 249 to 251 °C. `COc1ccc(-c2nn(CCC#N)cc2/C=C(/C#N)C(=O)O)cc1` displayed a melting point of 212 to 214 °C. Consider `N#CC(C(=O)c1ccccc1)c1ccccc1` (stereo unspecified), for which the melting point was 97 to 99 °C.

Turning to `O=C(O)Cn1ccc2ccc(Cl)cc21`, the melting point was in the range of 166 to 168 °C. In turn, `N#Cc1ccc(-n2cncn2)nc1` displayed a melting point of 203 to 205 °C. `O=C(O)C(Sc1cc(F)ccc1F)c1ccccc1` (stereo unspecified): the melting point was in the range of 106 to 108 °C. As for `CNc1ccc(Cl)nn1`, the melting point is 194 to 196 °C.

Regarding `O=C(O)c1csc(-c2ccc(Br)s2)n1`, the melting point lay in the range of 248 to 250 °C.

The compound `Cc1cn2c(n1)CCC(N)C2` (stereo unspecified) had a melting point of 49 to 51 °C.

The compound `Cc1ccc2[nH]cnc2c1C` came in with a melting point of 169 to 171 °C. In the case of `N#Cc1cccnc1-n1cncn1`, the melting point was in the range of 201 to 203 °C.

`COc1cc(OC)cc(C(O)CN)c1` (stereo unspecified): the melting point was in the range of 92 to 94 °C. `CNC(=S)NCCN1CCOCC1` gave a melting point of 103 to 105 °C. As to `O=C(O)C1(c2ccc(F)cc2)CCC1`, the melting point lay in the range of 67 to 69 °C. Then `NS(=O)(=O)c1ccc(O)c(C(=O)O)c1`, with 233 to 235 °C.

Compound `O=C(Nc1ccc(-n2cccn2)c(F)c1)OCC(F)(F)F` showed a melting point of 156 to 158 °C. With `CS(=O)(=O)c1ccc(Cl)c(S(N)(=O)=O)c1` the figure was 228 to 230 °C. Compound `Cc1coc(-c2cccc(N)c2)n1` had a melting point of 88 to 90 °C. With `CCNc1ccc(S(=O)(=O)C(F)F)cc1N` the figure was 115 to 117 °C. Compound `O=C(CCl)NCCOc1cccc(C(F)(F)F)c1` registered a melting point of 43 to 45 °C. Then `COc1ccc2c(c1)NC(=O)C(C)O2` (stereo unspecified), with 138 to 140 °C; and `O=Cc1ccc(-c2cccs2)cc1F`, with 73 to 75 °C; and `O=C(O)COc1ccc(C(=O)c2ccccc2)cc1`, with 152 to 156 °C. `Cc1[nH]c2ccccc2c1C1CCNCC1` had a melting point of 222 to 224 °C. `CN(c1ccc(OCC(=O)O)cc1)S(=O)(=O)c1cccs1`: the melting point is 145 to 147 °C.

In turn, `O=C(NCCO)c1ccccc1` returned a melting point of 60 to 62 °C. Consider `COc1cc(C=O)c([N+](=O)[O-])cc1OCC(F)F`, for which the melting point was 139 to 141 °C. As for `CNc1cc(-c2ccc(OC)cc2)[nH]n1`, the melting point was in the range of 122 to 124 °C. `Cc1ccc(S(=O)(=O)Nc2ccccc2Br)cc1` came in with a melting point of 88 to 90 °C. On to `NC(=O)c1cc(Br)ccc1N`, for which the melting point lay within 183 to 185 °C. Consider `CN(C1CCCCC1)S(=O)(=O)c1ccc(S)nc1`, for which the melting point lay in the range of 175 to 177 °C.

`ON=Cc1nc2cc(Cl)ccc2o1` came in with a melting point of 206 to 208 °C. In the case of `O=C1CC(c2ccccc2)=NN1c1ccccc1Br`, the melting point lay in the range of 183 to 185 °C. `O=C(O)c1cnn2cc(Br)cnc12` returned a melting point of 199 to 201 °C. Compound `O=C1NC(=O)N2CCCC12` (stereo unspecified) showed a melting point of 149 to 151 °C. Take `N#CCC(=O)c1ccc(F)c(F)c1`: the melting point lay within 67 to 69 °C. Compound `COC(=O)Cn1ncc2c(Cl)ncnc21` displayed a melting point of 66 to 68 °C. Then `CCc1ccc(C(=O)CCl)s1`, with 52 to 54 °C.

Compound `CC(Cl)C(=O)Nc1ccc([N+](=O)[O-])cc1C(F)(F)F` (stereo unspecified) had a melting point of 183 to 185 °C. With `O=C(Nc1ccccc1)c1cccc(-n2ccnc2S)c1` the figure was 228 to 230 °C. As for `CCC(Br)C(=O)c1ccc(NC(C)=O)cc1` (stereo unspecified), the melting point was in the range of 107 to 109 °C. `CC(C)c1nnc(NC(=O)OCC(F)(F)F)s1` yielded a melting point of 189 to 191 °C. With `O=[N+]([O-])c1cccc(Cl)c1S(=O)(=O)Cl`, the melting point was in the range of 81 to 83 °C. With `CC1CN(C(=O)c2ccc(N)cc2)CC(C)O1` (stereo unspecified), the melting point fell in the range of 174 to 176 °C. The compound `COc1cc(F)cc(C(=O)O)c1N` displayed a melting point of 211 to 213 °C. Then `O=c1ccc(S(=O)(=O)c2ccccc2)n[nH]1`, with 182 to 184 °C. Regarding `O=C1CSc2ccc(C(=O)O)cc2N1`, the melting point was 251 to 253 °C. `O=C(O)c1ccc(Oc2cccc(Br)c2)nc1` gave a melting point of 154 to 156 °C. As to `Clc1nc(-c2cccnc2)nc2ccccc12`, the melting point lay in the range of 180 to 182 °C.

The compound `O=c1[nH]c(CNCC2CCCO2)nc2ccccc12` (stereo unspecified) had a melting point of 128 to 132 °C. Regarding `CC(C)Cn1c(=O)[nH]c(=O)c2c(S)nc(CC3CC4CCC3C4)nc21` (stereo unspecified), the melting point lay in the range of 311 to 313 °C.

`Nc1cc(S(=O)(=O)NC2CC2)ccc1Cl` showed a melting point of 125 to 127 °C.

The compound `O=C(O)c1sccc1S(=O)(=O)NCc1cccs1` returned a melting point of 138 to 140 °C.

With `CCN(CC)S(=O)(=O)c1ccc(=O)n(CC(=O)O)c1`, the melting point lay within 182 to 189 °C.

Take `N#Cc1cc(Cl)ccn1`: the melting point was in the range of 81 to 85 °C.

With `CC(O)c1ccc(N2CCNC(=O)C2)cc1Cl` (stereo unspecified), the melting point is 186 to 188 °C. `COc1ccc(CCNC(N)=S)cc1` yielded a melting point of 166 to 168 °C. The compound `CC1CCCCN1C(=O)c1ccc(N)cc1Cl` (stereo unspecified) showed a melting point of 186 to 188 °C. `CC1(c2ccccc2)CC(=O)NC(=O)C1` showed a melting point of 150 to 152 °C. As to `CC(C)(C)OC(=O)c1cccc(C=O)c1`, the melting point is 31 to 33 °C. In turn, `CNCC(=O)Nc1ccc(Cl)cc1` had a melting point of 58 to 60 °C.
